# Measurements as given in patent US9777005B2 (Takeda Pharmaceutical Company Limited, priority 2012, dated 2017).
# Biological target: T1, human M1 receptor (hCHRM1) (Homo sapiens, UniProt P11229)
# T1 construct: expressed in transfected cells; host or cells: CHO-K1
# T1 sequence (P11229 1-460): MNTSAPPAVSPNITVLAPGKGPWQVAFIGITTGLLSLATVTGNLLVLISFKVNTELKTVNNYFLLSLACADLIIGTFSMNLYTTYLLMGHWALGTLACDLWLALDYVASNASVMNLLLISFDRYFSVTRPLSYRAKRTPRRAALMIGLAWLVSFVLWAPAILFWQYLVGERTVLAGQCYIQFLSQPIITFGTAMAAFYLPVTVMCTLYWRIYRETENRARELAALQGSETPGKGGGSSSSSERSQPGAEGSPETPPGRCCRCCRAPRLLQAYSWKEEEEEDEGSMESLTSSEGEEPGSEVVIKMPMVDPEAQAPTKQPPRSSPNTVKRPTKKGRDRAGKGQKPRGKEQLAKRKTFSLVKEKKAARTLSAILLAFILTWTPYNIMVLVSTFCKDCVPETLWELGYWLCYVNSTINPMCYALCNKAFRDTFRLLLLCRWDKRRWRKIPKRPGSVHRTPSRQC
# Assay: Measurement of M1 receptor positive allosteric modulator (M1PAM) activity, calcium fluorescence (FLIPRtetra) in CHO-K1 cells in the presence of acetylcholine at EC20
# Assay type: cell-based
# Conditions: in the presence of acetylcholine at EC20 (final 0.6 nM), CHO-K1 cells expressing hCHRM1; for EC50: inflection point of M1PAM activity, read-out: IP value; for activity (%) at 10 μM: test compound 10 μM
# How it was run: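 PAM activity was measured as calcium flux by FLIPRtetra over 1 min after co-addition of compound and EC20 acetylcholine (final 0.6 nM) to Fluo-4-loaded hCHRM1 CHO-K1 cells. The response was scaled between DMSO (0%) and 1 μM acetylcholine (100%), and the inflection point of the concentration curve gives the IP value.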
EC50,activity (%) at 10 μM,SMILES
12 nM,93%,"Cn1cc(-c2ccc(CN3Cc4ccnc(Oc5ccc(C(F)(F)F)cc5F)c4C3=O)cc2)cn1 [Example 304, 4-(2-fluoro-4-(trifluoromethyl)phenoxy)-2-(4-(1-methyl-1H-pyrazol-4-yl)benzyl)-1,2-dihydro-3H-pyrrolo[3,4-c]pyridin-3-one]"
93 nM,96%,"Cc1cc(F)cc(F)c1Oc1nccc2c1C(=O)N(Cc1ccc(-c3ccn(C)n3)cc1)C2 [Example 359, 4-(2,4-difluoro-6-methylphenoxy)-2-(4-(1-methyl-1H-pyrazol-3-yl)benzyl)-1,2-dihydro-3H-pyrrolo[3,4-c]pyridin-3-one]"
10 nM,109%,"Cn1ccc(-c2ccc(CN3Cc4ccnc(O[C@H]5CCC[C@@H]5O)c4C3=O)c(F)c2)n1 (relative stereo) [Example 236, 2-(2-fluoro-4-(1-methyl-1H-pyrazol-3-yl)benzyl)-4-((trans-2-hydroxycyclopentyl)oxy)-1,2-dihydro-3H-pyrrolo[3,4-c]pyridin-3-one]"
190 nM,113%,"O=C1c2c(cccc2O[C@H]2CCCC[C@@H]2O)CN1Cc1ccc(Br)cc1 (relative stereo) [Example 25, 2-(4-bromobenzyl)-7-((trans-2-hydroxycyclohexyl)oxy)isoindolin-1-one]"
38 nM,100%,"CNC(=O)c1ccc(CN2Cc3ccnc(Oc4ccc(Br)cc4F)c3C2=O)cc1F [Example 442, 4-((4-(4-bromo-2-fluorophenoxy)-3-oxo-1,3-dihydro-2H-pyrrolo[3,4-c]pyridin-2-yl)methyl)-2-fluoro-N-methylbenzamide]"
48 nM,101%,"O=C1c2c(cccc2O[C@@H]2CCOC[C@H]2O)CN1Cc1ccc(Cl)cc1 (single isomer, unassigned) [Example 292, 1,5-anhydro-3-O-(2-(4-chlorobenzyl)-3-oxo-2,3-dihydro-1H-isoindol-4-yl)-2-deoxy-threo-pentitol]"
17 nM,110%,"CCc1cc(F)c(Oc2nccc3c2C(=O)N(Cc2ccc(-c4ccn(C)n4)cc2)C3)c(F)c1 [Example 430, 4-(4-ethyl-2,6-difluorophenoxy)-2-(4-(1-methyl-1H-pyrazol-3-yl)benzyl)-1,2-dihydro-3H-pyrrolo[3,4-c]pyridin-3-one]"
60 nM,107%,"Cn1cc(-c2ccc(CN3Cc4cccc(OCCN5CCC(F)(F)CC5)c4C3=O)cc2)cn1 [Example 18, 7-(2-(4,4-difluoropiperidin-1-yl)ethoxy)-2-(4-(1-methyl-1H-pyrazol-4-yl)benzyl)isoindolin-1-one]"
3.8 nM,106%,"Cn1cc(-c2ccc(CN3Cc4ncnc(OCc5ccc(F)cc5F)c4C3=O)cc2)nn1 [Example 340, 4-((2,4-difluorobenzyl)oxy)-6-(4-(1-methyl-1H-1,2,3-triazol-4-yl)benzyl)-6,7-dihydro-5H-pyrrolo[3,4-d]pyrimidin-5-one]"
12 nM,103%,"O=C1c2c(ccnc2OCC2CCCO2)CN1Cc1ccc(-c2cnn(CC3CC3)c2)cc1 (stereo not drawn) [Example 288, 2-(4-(1-(cyclopropylmethyl)-1H-pyrazol-4-yl)benzyl)-4-((tetrahydrofuran-2-yl)methoxy)-1,2-dihydro-3H-pyrrolo[3,4-c]pyridin-3-one]"
16 nM,105%,"Cc1cc(-c2ccc(CN3Cc4ccnc(Oc5ccc(C(F)F)cc5F)c4C3=O)cc2)cnn1 [Example 392, 4-(4-(difluoromethyl)-2-fluorophenoxy)-2-(4-(6-methylpyridazin-4-yl)benzyl)-1,2-dihydro-3H-pyrrolo[3,4-c]pyridin-3-one]"
67 nM,110%,"Cn1cc(-c2ccc(CN3Cc4ccnc(OCCC5CC5)c4C3=O)cc2)nn1 [Example 254, 4-(2-cyclopropylethoxy)-2-(4-(1-methyl-1H-1,2,3-triazol-4-yl)benzyl)-1,2-dihydro-3H-pyrrolo[3,4-c]pyridin-3-one]"
6.6 nM,94%,"Cn1cc(-c2ccc(CN3Cc4ccnc(Oc5ccc(OC(F)(F)F)cc5C#N)c4C3=O)cc2)cn1 [Example 363, 2-((2-(4-(1-methyl-1H-pyrazol-4-yl)benzyl)-3-oxo-2,3-dihydro-1H-pyrrolo[3,4-c]pyridin-4-yl)oxy)-5-(trifluoromethoxy)benzonitrile]"
7.8 nM,103%,"Cc1nn(C)cc1-c1ccc(CN2Cc3ccnc(Oc4ccc(C(F)F)cc4F)c3C2=O)c(F)c1 [Example 381, 4-(4-(difluoromethyl)-2-fluorophenoxy)-2-(4-(1,3-dimethyl-1H-pyrazol-4-yl)-2-fluorobenzyl)-1,2-dihydro-3H-pyrrolo[3,4-c]pyridin-3-one]"
8.6 nM,91%,"CNC(=O)c1ccc(CN2Cc3ccnc(Oc4ccc(CC(F)(F)F)cc4F)c3C2=O)cc1 [Example 457, 4-((4-(2-fluoro-4-(2,2,2-trifluoroethyl)phenoxy)-3-oxo-1,3-dihydro-2H-pyrrolo[3,4-c]pyridin-2-yl)methyl)-N-methylbenzamide]"
8.5 nM,103%,"Cn1ccc(-c2ccc(CN3Cc4cccc(O[C@@H]5COCC[C@H]5O)c4C3=O)cc2)n1 [Example 273, 1,5-anhydro-2-deoxy-4-O-(2-(4-(1-methyl-1H-pyrazol-3-yl)benzyl)-3-oxo-2,3-dihydro-1H-isoindol-4-yl)-threo-pentitol]"
39 nM,103%,"O=C1c2c(ccnc2O[C@H]2CCC[C@@H]2O)CN1Cc1ccc(-n2cccn2)cc1 (relative stereo) [Example 77, 4-((trans-2-hydroxycyclopentyl)oxy)-2-(4-(1H-pyrazol-1-yl)benzyl)-1,2-dihydro-3H-pyrrolo[3,4-c]pyridin-3-one]"
57 nM,98%,"Cn1cc(-c2ccc(CN3Cc4ccnc(OC5CCC5)c4C3=O)cc2)nn1 [Example 335, 4-(cyclobutyloxy)-2-(4-(1-methyl-1H-1,2,3-triazol-4-yl)benzyl)-1,2-dihydro-3H-pyrrolo[3,4-c]pyridin-3-one]"
16 nM,96%,"Cn1cc(-c2ccc(CN3Cc4ccnc(Oc5cc(C#N)ccc5F)c4C3=O)cc2)cn1 [Example 297, 4-fluoro-3-((2-(4-(1-methyl-1H-pyrazol-4-yl)benzyl)-3-oxo-2,3-dihydro-1H-pyrrolo[3,4-c]pyridin-4-yl)oxy)benzonitrile]"
150 nM,100%,"O=C1c2c(cccc2O[C@@H]2COCC[C@H]2O)CN1Cc1ccc(Cl)cc1 (single isomer, unassigned) [Example 295, 1,5-anhydro-2-O-(2-(4-chlorobenzyl)-3-oxo-2,3-dihydro-1H-isoindol-4-yl)-4-deoxy-threo-pentitol]"
44 nM,91%,"Cc1cc(-c2ccc(CN3Cc4ccnc(Oc5cc(CO)ccc5F)c4C3=O)cc2)ccn1 [Example 290, 4-(2-fluoro-5-(hydroxymethyl)phenoxy)-2-(4-(2-methylpyridin-4-yl)benzyl)-1,2-dihydro-3H-pyrrolo[3,4-c]pyridin-3-one]"
58 nM,97%,"Cn1cc(-c2cccc(CN3Cc4cccc(O[C@H]5CCCC[C@@H]5O)c4C3=O)c2)cn1 (relative stereo) [Example 39, 7-((trans-2-hydroxycyclohexyl)oxy)-2-(3-(1-methyl-1H-pyrazol-4-yl)benzyl)isoindolin-1-one]"
30 nM,98%,"Cn1cc(-c2ccc(CN3Cc4ccnc(Oc5ccc(OC(F)(F)F)cc5F)c4C3=O)cc2)cn1 [Example 362, 4-(2-fluoro-4-(trifluoromethoxy)phenoxy)-2-(4-(1-methyl-1H-pyrazol-4-yl)benzyl)-1,2-dihydro-3H-pyrrolo[3,4-c]pyridin-3-one]"
13 nM,96%,"CNC(=O)c1ccc(CN2Cc3cccc(Oc4ccc(C(F)(F)F)cc4F)c3C2=O)cc1 [Example 439, 4-((7-(2-fluoro-4-(trifluoromethyl)phenoxy)-1-oxo-1,3-dihydro-2H-isoindol-2-yl)methyl)-N-methylbenzamide]"
3 nM,117%,"Cc1nn(C)cc1-c1ccc(CN2Cc3cccc(O[C@@H]4CCOC[C@H]4O)c3C2=O)cc1 (single isomer, unassigned) [Example 248, 1,5-anhydro-2-deoxy-3-O-(2-(4-(1,3-dimethyl-1H-pyrazol-4-yl)benzyl)-3-oxo-2,3-dihydro-1H-isoindol-4-yl)-threo-pentitol]"
31 nM,101%,CCc1ccc(Oc2nccc3c2C(=O)N(Cc2ccc(C(=O)NC)c(F)c2)C3)c(F)c1 [Example 443]
7.6 nM,83%,"Cn1cc(-c2ccc(CN3Cc4cccc(Oc5c(F)cc(C#N)cc5F)c4C3=O)nc2)cn1 [Example 377, 3,5-difluoro-4-((2-((5-(1-methyl-1H-pyrazol-4-yl)pyridin-2-yl)methyl)-3-oxo-2,3-dihydro-1H-isoindol-4-yl)oxy)benzonitrile]"
